Assay results published in patent US20220089540A1 (Board of Trustees of Michigan State University, priority 2019, published 2022).
Values joined by “and” are separate entries in the source; they are usually repeats but may differ in a detail not shown here. Equal entries are not always repeated. Where two headings read alike, the source gives them in different places.

How the values were obtained:
[1] = test system: SREBP; assay: SREBP induction in human liver (HepG2) cells, RT-PCR; assay type: cell-based; details: for fold induction at 0.3 µM: human, HepG2 cells (human liver carcinoma), read-out: Safety SREBP mRNA fold induction at 300 nM; for SREBP activation: fold induction compared to DMSO, several values per cell, Table 6
Method: The SREBP transcription factor is involved in triglyceride synthesis, and its activation correlates with increased triglycerides in vivo. […] Lower numbers indicate better safety. […] Lower numbers indicate better safety. Also, for Table 6, SREBP activation was measured as fold induction compared to DMSO, where a lower value indicates the compound is an improvement over a control.

[2] = test system: inducible nitric oxide synthase (iNOS); assay: iNOS suppression / NO assay in LPS-stimulated macrophages or RAW264.7 cells (Griess reaction); assay type: cell-based, mouse; details: Mus musculus; for IC50: RAW264.7, Table 7
Method: Macrophages or RAW264.7 like-cells were treated with various concentrations of rexinoids and stimulated with lipopolysaccaride (LPS) to activate inducible nitric oxide synthase (iNOS) to produce nitric oxide. This in vitro iNOS assay was rapid, reproducible, quantitative and predictive. Nitric oxide is implicated in the apoptosis of cancer cells via regulation of RXRs. There is a tight correlation between the % reduction of iNOS and efficacy in preclinical lung cancer models. Lower numbers indicate higher efficacy.
RAW264.7 cells were incubated with 300 nM rexinoids and stimulated with 1-2 ng/ml lipopolysaccaride (LPS) for 24 hours to activate inducible nitric oxide synthase (iNOS) to produce nitric oxide. Nitric oxide released into the media was measured by the Griess reaction.
Also, for Table 6, the iNOS suppression is the percent of the LPS-stimulated control where the compounds were measured at 100 nM or 300 nM.
Macrophages or RAW264.7 cells were treated with various concentrations of rexinoids listed in Table 7 and stimulated with lipopolysaccaride (LPS) to activate inducible nitric oxide synthase (iNOS) to produce nitric oxide. Nitric oxide (NO) is implicated in the apoptosis of cancer cells via regulation of RXRs. There is a tight correlation between the % reduction of iNOS and efficacy in preclinical lung cancer models. The in vitro iNOS assay is rapid, reproducible, quantitative and predictive, as NO production is measured in culture medium using the Griess reaction. Values are either presented as % inhibition or IC50 values.

[3] = RAW264.7, 24 h, at 300 nM, percent of the LPS-stimulated control, lower is better, Table 6, read-out: iNOS suppression
[4] = RAW264.7, 24 h, read-out: iNOS (300 nM)

IC50 [2] [nM] | Structure (SMILES) | fold induction at 0.3 µM ([1]; 300 nM, HepG2, Table 5) | other results
– | C=C(c1ccc(C(=O)O)cc1)c1cc(C(C)C)c(OCC(C)C)cc1C [drawing 71] | 1.67 ± 0.2 | –
300 to 600 | Cc1ccc(N(CC(C)C)c2ccc(C(=O)O)cn2)cc1C(F)(F)F [6-{[4-methyl-3-(trifluoromethyl)phenyl](2-methylpropyl)amino}pyridine-3-carboxylic Acid] | – | –
100 to 200 | CCCCN(c1ccc(C(=O)O)cn1)c1cc(C(C)(C)C)cc2c1CCC2(C)C | – | –
300 to 600 | CCCN(c1ncc(C(=O)O)cn1)c1cc(C(C)(C)C)cc2c1CCC2(C)C | – | –
100 to 200 | CC(C)(C)c1cc(N(CC2CC2)c2ccc(C(=O)O)cn2)c2c(c1)C(C)(C)CC2 | – | –
– | CCN(c1ccc(C(=O)O)cn1)c1cc(C(C)(C)C)ccc1C [drawing 72] | 1.59 ± 0.5 | –
– | CC(C)(C)c1cc(N(Cc2ccccc2)c2ccc(C(=O)O)cn2)cc(C(C)(C)C)c1 [drawing 93] | 1.94 ± 0.04 | –
300 to 600 | CC(C)N(c1ncc(C(=O)O)cn1)c1cc(C(C)(C)C)cc2c1CCC2(C)C | – | –
– | CC(C)CN(c1cc(C(C)(C)C)cc(C(C)(C)C)c1)c1ccc(C(=O)O)cn1 [drawing 82] | 1.49 ± 0.6 | –
100 to 200 | CC(C)CN(c1ccc(C(=O)O)cn1)c1cc(C(C)(C)C)cc2c1CCC2(C)C | – | –
– | CC(C)CN(c1cc(C(F)(F)F)cc(C(F)(F)F)c1)c1ccc(C(=O)O)cn1 | 1 ± 0.03 | –
– | CCN(c1ccc(C(=O)O)cn1)c1cc(C(C)(C)C)ccc1C [drawing 112] | – | SREBP activation [1]: 2.7 fold induction and 2.2 fold induction; activity at 0.3 µM [2, 3]: 60%
– | C=C(c1ccc(C(=O)O)cc1)c1cc(C(C)(C)C)ccc1OCC [Compound 4, 4-[1-(5-tert-butyl-2-ethoxyphenyl)ethenyl]benzoic Acid] | – | activity at 0.3 µM [2, 4]: 65%
– | CCCN(c1ccc(C(=O)O)cn1)c1cc(C(C)(C)C)ccc1C | 1.8 ± 0.2 | –
200 to 300 | CC(C)(C)c1cc(N(CC2CC2)c2ncc(C(=O)O)cn2)c2c(c1)C(C)(C)CC2 | – | –
– | C=C(c1ccc(C(=O)O)cc1)c1cc(C(C)(C)C)cc(C(C)(C)C)c1 [drawing 76] | 1.12 ± 0.5 | –
300 to 600 | Cc1cc(N(CC(C)C)c2ccc(C(=O)O)cn2)cc(C(F)(F)F)c1 | – | –
– | CCN(c1cc(C(C)(C)C)cc(C(C)(C)C)c1)c1ccc(C(=O)O)cn1 [drawing 65] | 2.62 ± 0.7 | –
100 to 200 | CC(C)N(c1ccc(C(=O)O)cn1)c1cc(C(C)(C)C)cc2c1CCC2(C)C [6-[(6-tert-butyl-1,1-dimethyl-2,3-dihydro-1H-inden-4-yl)(propan-2-yl)amino]pyridine-3-carboxylic Acid] | – | –
– | C=C(c1ccc(C(=O)O)cc1)c1cc2c(cc1C)C(C)(C)CCC2(C)C [drawing 61] | 2.23 ± 0.5 | –
– | C=C(c1ccc(C(=O)O)cc1)c1cc(C(C)C)c(OC(C)C)cc1C [Compound 1, 4-{1-[2-methyl-5-(propan-2-yl)-4-(propan-2-yloxy)phenyl]ethenyl}benzoic Acid] | – | activity at 0.3 µM [2, 4]: 41%
100 to 200 | CC(C)N(c1cc(C(F)(F)F)cc(C(F)(F)F)c1)c1ncc(C(=O)O)cn1 | – | –
– | C=C(c1ccc(C(=O)O)cc1)c1cc(C(C)(C)C)ccc1OCC [drawing 108] | – | SREBP activation [1]: 2.1 fold induction; activity at 0.3 µM [2, 3]: 67%
– | Cc1ccc(C(C)(C)C)cc1N(CC(C)C)c1ccc(C(=O)O)cn1 | 4.93 ± 2.7 | –
– | C=C(c1ccc(C(=O)O)cc1)c1cc(C(C)C)c(OC(C)C)cc1C [drawing 74] | 1.08 ± 0.1 | –
– | CCN(c1ccc(C(=O)O)cc1)c1cc(C(C)(C)C)cc(C(C)(C)C)c1 [drawing 64] | 1.37 ± 0.3 | –
– | CCCCN(c1cc(C(C)(C)C)cc(C(C)(C)C)c1)c1ccc(C(=O)O)cn1 [drawing 83] | 5.6 ± 3.6 | –

IC50 [2] [nM] | Structure (SMILES) | fold induction at 0.3 µM ([1]; 300 nM, HepG2, Table 5) | other results
– | CC(C)CN(c1cc(C(C)(C)C)cc(C(C)(C)C)c1)c1ncc(C(=O)O)cn1 | 2.46 ± 0.5 | –
300 to 600 | Cc1ccc(N(CC2CC2)c2ccc(C(=O)O)cn2)cc1C(F)(F)F | – | –
300 to 600 | CC(C)(C)c1cc(N(Cc2ccccc2)c2ccc(C(=O)O)cn2)cc(C(C)(C)C)c1 [drawing 195, 6-[benzyl(3,5-di-tert-butylphenyl)amino]pyridine-3-carboxylic Acid] | – | –
300 to 600 | Cc1ccc(N(c2ccc(C(=O)O)cn2)C(C)C)cc1C(F)(F)F | – | –
– | CCN(c1cc(C(C)(C)C)cc(C(C)(C)C)c1)c1ncc(C(=O)O)cn1 [drawing 66] | 1.38 ± 0.4 | –
– | Cc1ccc(C(C)(C)C)cc1N(c1ccc(C(=O)O)cn1)C(C)C | 0.98 ± 0.06 | –
– | C=C(c1ncc(C(=O)O)cn1)c1cc2c(cc1C)C(C)(C)CCC2(C)C [Pyrimidine Bexarotene, reference compound] | – | Safety SREBP mRNA fold induction at 300 nM ([1]; 300 nM, HepG2, Table 5): 1.19 ± .1 fold
300 to 600 | CCCN(c1ccc(C)c(C(F)(F)F)c1)c1ccc(C(=O)O)cn1 [6-{[4-methyl-3-(trifluoromethyl)phenyl](propyl)amino}pyridine-3-carboxylic Acid] | – | –
– | CC(C)N(c1cc(C(C)(C)C)cc(C(C)(C)C)c1)c1ccc(C(=O)O)cn1 | 1.65 ± 0.1 | –
– | CCCN(c1cc(C(C)(C)C)cc(C(C)(C)C)c1)c1ncc(C(=O)O)cn1 | 1.25 ± 0.1 | –
– | CCN(c1ccc(C(=O)O)cc1)c1cc(C(C)(C)C)c(OC)c(C(C)(C)C)c1 [drawing 81] | 1.63 ± 0.3 | –
– | CCCN(c1cc(C(C)(C)C)cc(C(C)(C)C)c1)c1ccc(C(=O)O)cn1 [drawing 77] | 2.15 ± 0.7 | –
– | C=C(c1ccc(C(=O)O)cc1)c1ccc(OCC(C)C)c(C(C)C)c1 [Compound 5, 4-{1-[3-iso-propyl-4-(2-methylpropoxy)phenyl]ethenyl}benzoic Acid] | – | activity at 0.3 µM [2, 4]: 65%
– | CCOc1c(N(CC)c2ccc(C(=O)O)cc2)cc(C(C)(C)C)cc1C(C)(C)C [drawing 67] | 1.59 ± 0.2 | –
100 to 200 | CCCN(c1ccc(C(=O)O)cn1)c1cc(C(C)(C)C)cc2c1CCC2(C)C | – | –
– | C=C(c1ccc(C(=O)O)cc1)c1cc(C(C)C)c(OCC)cc1C [Compound 2, 4-{1-[4-ethoxy-2-methyl-5-(propan-2-yl)phenyl]ethenyl}benzoic Acid] | – | activity at 0.3 µM ([2]; 300 nM, RAW264.7, 1-2 ng/ml LPS, 24 hours, Table 3, read-out: iNOS (300 nM)): 45%
– | Cc1cc2c(cc1C1(c3ncc(C(=O)O)cn3)CC1)C(C)(C)CCC2(C)C [drawing 63] | 1.17 ± 0.1 | –
– | CC(C)(C)c1cc(N(CC2CC2)c2ncc(C(=O)O)cn2)cc(C(C)(C)C)c1 | 1.46 ± 0.2 | –
– | CC(C)CN(c1cc(C(C)(C)C)cc(C(C)(C)C)c1)c1ccc(C(=O)O)cn1 [drawing 122] | – | SREBP activation [1]: 1.7 fold induction and 2.0 fold induction
– | CC(C)(C)c1cc(-n2c(C(F)(F)F)nc3cc(C(=O)O)ccc32)cc(C(C)(C)C)c1 [drawing 69] | 1.58 ± 0.2 | –
– | CC(C)N(c1cc(C(C)(C)C)cc(C(C)(C)C)c1)c1ncc(C(=O)O)cn1 | 2.46 ± 0.8 | –
– | CCN(c1cc(C(F)(F)F)cc(C(F)(F)F)c1)c1ccc(C(=O)O)cn1 [drawing 79] | 0.96 ± 0.5 | –
– | CCN(c1ccc(C(=O)O)cc1)c1cc(C(C)C)c(OCC(C)C)cc1C [drawing 80] | 1.45 ± 0.2 | –
– | CC(C)(C)c1cc(N(CC2CC2)c2ccc(C(=O)O)cn2)cc(C(C)(C)C)c1 [drawing 78] | 2.48 ± 1.8 | –
300 to 600 | CC(C)CN(c1ncc(C(=O)O)cn1)c1cc(C(C)(C)C)cc2c1CCC2(C)C | – | –
300 to 600 | CCCCN(c1ncc(C(=O)O)cn1)c1cc(C(C)(C)C)cc2c1CCC2(C)C | – | –
– | CCCCN(c1cc(C(C)(C)C)cc(C(C)(C)C)c1)c1ccc(C(=O)O)cn1 [drawing 123] | – | SREBP activation [1]: 5.3 fold induction
